# Data taken from patent US20120059162A1, “FUSED IMIDAZOLE DERIVATIVE HAVING TTK INHIBITORY ACTION” (Oncotherapy Science, Inc., priority 2009, published 2012).
# Read-outs that look alike come from different tables or passages of the source.
# Assays:
# [1] = biological target: T1, TTK (Homo sapiens, UniProt P33981); assay: TTK assay: screening of TTK kinase activity suppressing action using p38 MAPK peptide; format: biochemical
# T1 sequence (P33981 1-857): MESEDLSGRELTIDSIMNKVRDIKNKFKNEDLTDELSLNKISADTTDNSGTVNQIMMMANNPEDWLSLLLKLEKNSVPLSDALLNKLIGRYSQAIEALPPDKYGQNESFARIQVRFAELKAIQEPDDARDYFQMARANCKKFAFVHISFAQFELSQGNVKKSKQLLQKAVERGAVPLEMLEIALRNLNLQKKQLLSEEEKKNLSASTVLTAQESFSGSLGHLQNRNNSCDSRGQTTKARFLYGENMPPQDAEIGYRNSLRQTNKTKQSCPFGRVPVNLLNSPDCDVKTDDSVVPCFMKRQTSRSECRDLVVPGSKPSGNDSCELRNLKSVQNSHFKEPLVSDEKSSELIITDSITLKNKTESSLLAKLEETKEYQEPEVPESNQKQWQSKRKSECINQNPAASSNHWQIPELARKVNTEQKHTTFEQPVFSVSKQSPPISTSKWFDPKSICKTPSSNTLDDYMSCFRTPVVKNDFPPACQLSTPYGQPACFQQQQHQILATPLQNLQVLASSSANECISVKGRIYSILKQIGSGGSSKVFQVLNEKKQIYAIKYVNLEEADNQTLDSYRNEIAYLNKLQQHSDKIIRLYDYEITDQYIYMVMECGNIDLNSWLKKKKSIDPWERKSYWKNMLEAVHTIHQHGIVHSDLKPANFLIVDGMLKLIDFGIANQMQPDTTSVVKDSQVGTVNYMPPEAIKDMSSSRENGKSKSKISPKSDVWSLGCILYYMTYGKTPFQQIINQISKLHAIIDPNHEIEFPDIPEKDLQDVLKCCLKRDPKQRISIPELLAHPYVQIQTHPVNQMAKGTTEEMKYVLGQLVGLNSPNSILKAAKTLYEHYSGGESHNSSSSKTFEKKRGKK
# Protocol: Screening of a compound having a TTK kinase activity suppressing action using p38 MAPK peptide
# A test substance 1.0 μL (solvent: 10% (v/v) DMSO), TTK solution 5 μL (composition: 4 μg/ml TTK, 25 mM Tris-HCl, pH7.5, 5 mM β-glycerophosphate, 2 mM DTT, 0.1 mM Na3VO4, 5 mM MgCl2, 0.1% (w/v)BSA) and a substrate solution 5 μL (composition: 60 μM p38 MAPK peptide, 60 μM ATP, 25 mM Tris-HCl, pH7.5, 5 mM β-glycerophosphate, 2 mM DTT, 0.1 mM Na3VO4, 5 mM MgCl2, 0.1% (w/v)BSA) were mixed in the wells of a 384-well microtiter plate (manufactured by Corning Incorporated) made of polypropylene and loaded in a constant temperature and humidity room.
# From the resultant mixture, an aliquot of 1.7 μL was taken out and mixed with the reaction terminating solution (60 μl) in the wells of a 384-well microtiter plate (manufactured by Corning Incorporated) made of polypropylene. Thereafter, 40 μL of the mixture was transferred to a 384-well black NeutrAvidin plate (PIERCE), sealed and incubated under room temperature for 30 minutes. […] Similarly, the plate was washed with TTBS (100 μL) three times, 40 μl of a secondary antibody solution (Eu-N1 labeled Anti-mouse IgG (Perkin Elmer, #AD0124)) was added and incubated under room temperature for 30 minutes. After the plate was washed with TTBS (100 μL) five times, 40 μL of an enhance solution (Perkin Elmer) was added and incubated under room temperature for 5 minutes. […] Based on the fluorescence value in the absence of a test substance, the suppression activity of a test substance was measured.
# [2] = system: A549; assay: A549 assay: screening of cancer cell growth inhibiting compound; format: cell-based; settings: Homo sapiens
# In short: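 A549 cells (1×10^4/ml) in D-MEM with 10% FBS were pre-incubated one day at 37 °C, then exposed to compound dilutions for three further days. Viable cell number read by WST-8 (1–4 hours), absorbance 450 nm (reference 620 nm); inhibition calculated relative to untreated wells.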
# [3] = p38 MAPK peptide substrate, read-out: TTK IC50
# [4] = 72 h, A549 cells, three days, WST-8, read-out: A549 IC50
# [5] = A549 cells, values given as IC50 intervals, read-out: A549 IC50
SMILES,"IC50 [1, 3]","IC50 [2, 4]",also measured
"CC(C)CNc1cc(NC2CCCCC2)nn2c(-c3ccc(C(=O)NC4CC4)cc3)cnc12 [Example 2-2, 4-(6-(Cyclohexylamino)-8-(isobutylamino)imidazo[1,2-b]pyridazin-3-yl)-N-cyclopropylbenzamide]",,,"IC50 [1]: 11.8 nM; IC50 ([2]; A549, 72 h, read-out: A549 IC50 (μM)): 0.05 to 0.5 µM"
CCC(C)CNc1cc(NCC2CCOCC2)c2ncc(-c3ccc(C(=O)NC4CC4)cc3)n2n1 (centres unmarked) [Example 2-59],5.2 nM,0.05 to 0.5 µM,
O=C(NC1CC1)c1ccc(-c2cnc3c(NCC4CCOCC4)cc(Oc4cccc(C(F)(F)F)c4)nn23)cc1 [Example 2-111],3.8 nM,0.05 to 0.5 µM,
N#Cc1cccc(-c2cc(NCC3CCOCC3)c3ncc(-c4ccc(C(=O)NC5CC5)cc4)n3n2)c1 [Example 2-203],,,"IC50 ([1]; read-out: TTK IC50): 4.7 nM; IC50 [2, 5]: 0.05 to 0.5 µM"
CC(C)CN(CC1CC1)c1cc(NCC2CCOCC2)c2ncc(-c3ccc(C(=O)NC4CC4)cc3)n2n1 [Example 2-33],5.4 nM,0.5 to 1 µM,
CN1CCN(c2cc(NCC3CCOCC3)c3ncc(-c4ccc(C(=O)NC5CC5)cc4)n3n2)CC1 [Example 2-15],25.7 nM,0.05 to 0.5 µM,
N#Cc1ccc(-c2cn3c(-c4ccc(C(=O)NC5CC5)cc4)cnc3c(NCC(F)F)n2)cc1 [Example 1-236],8.3 nM,0.05 to 0.5 µM,
O=C(NC1CC1)c1ccc(-c2cnc3c(NCC4CCOCC4)cc(N4CCCC4)nn23)cc1 [Example 2-53],25.9 nM,1 to 10 µM,
N#Cc1ccc(-c2cn3c(-c4ccc(C(=O)NC5CC5)cc4)cnc3c(NCCSCCO)n2)cc1 [Example 1-214],6.7 nM,0.05 to 0.5 µM,
COc1cc(-c2cnc3c(NCC4CCOCC4)cc(NC4CCCC4)nn23)ccc1C(=O)NC1CC1 [Example 2-233],,,"IC50 ([1]; read-out: TTK IC50): 5.7 nM; IC50 [2, 5]: 0.5 to 1 µM"
O=C(NC1CC1)c1ccc(-c2cnc3c(NCC4CCOCC4)cc(N4CCOCC4)nn23)cc1 [Example 2-14],9.3 nM,0.05 to 0.5 µM,
O=C(NC1CC1)c1ccc(-c2cnc3c(NCC4CCOCC4)cc(Nc4ncccc4O)nn23)cc1 [Example 2-35],19.3 nM,1 to 10 µM,
O=C(NC1CC1)c1ccc(-c2cnc3c(NCC4CCOCC4)cc(NC4CCCC4)nn23)cc1F [Example 2-228],,,"IC50 ([1]; read-out: TTK IC50): 3.6 nM; IC50 [2, 5]: 0.05 to 0.5 µM"
CC(Nc1cc(NCC2CCOCC2)c2ncc(-c3ccc(C(=O)NC4CC4)cc3)n2n1)C(C)(C)C (centres unmarked) [Example 2-60],4.6 nM,≤ 0.05 µM,
O=C(NC1CC1)c1ccc(-c2cnc3c(NCC4CCOCC4)cc(NC45CC6CC(CC4C6)C5)nn23)cc1 [Example 2-37],2.7 nM,≤ 0.05 µM,
N#Cc1ccc(-c2cn3c(-c4ccc(C(=O)NC5CC5)cc4)cnc3c(NCc3cccs3)n2)cc1 [Example 1-212],7.2 nM,0.05 to 0.5 µM,
Nc1ccccc1Oc1cc(NCC2CCOCC2)c2ncc(-c3ccc(C(=O)NC4CC4)cc3)n2n1 [Example 2-97],3.3 nM,≤ 0.05 µM,

SMILES,"IC50 [1, 3]","IC50 [2, 4]",also measured
Nc1cc(C(=O)NC2CC2)ccc1-c1cnc2c(NCC3CCOCC3)cc(NC3CCCC3)nn12 [Example 2-225],,,"IC50 ([1]; read-out: TTK IC50): 9.7 nM; IC50 [2, 5]: 0.05 to 0.5 µM"
O=C(NC1CC1)c1ccc(-c2cnc3c(NCC4CCOCC4)cc(NC4CCCC4)nn23)cc1O [Example 2-229],,,"IC50 ([1]; read-out: TTK IC50): 4.4 nM; IC50 [2, 5]: 0.05 to 0.5 µM"
O=C(NC1CC1)c1ccc(-c2cnc3c(NCC4CCOCC4)cc(C4CCNCC4)nn23)cc1 [Example 2-212],,,"IC50 ([1]; read-out: TTK IC50): 23.1 nM; IC50 [2, 5]: 1 to 10 µM"
O=C(NC1CC1)c1ccc(-c2cnc3c(NCC4CCOCC4)cc(OC4C5CC6CC(C5)CC4C6)nn23)cc1 (centres unmarked) [Example 2-191],,,"IC50 ([1]; read-out: TTK IC50): 3.9 nM; IC50 [2, 5]: 0.05 to 0.5 µM"
CC1(Nc2cc(NCC3CCOCC3)c3ncc(-c4ccc(C(=O)NC5CC5)cc4)n3n2)CCCC1 [Example 2-75],3.6 nM,≤ 0.05 µM,
O=C(NC1CC1)c1ccc(-c2cnc3c(NCC4CCOCC4)cc(NC4CCCC(F)(F)C4)nn23)cc1 (centres unmarked) [Example 2-80],4 nM,≤ 0.05 µM,
O=C(NC1CC1)c1ccc(-c2cnc3c(NCC4CCOCC4)cc(Oc4cccc(O)c4)nn23)cc1 [Example 2-110],2.9 nM,0.05 to 0.5 µM,
CC1(Nc2cc(NCC3CCOCC3)c3ncc(-c4ccc(C(=O)NC5CC5)cc4)n3n2)CCCCC1 [Example 2-74],2.6 nM,≤ 0.05 µM,
CC(C)(C)CC(C)(C)Nc1cc(NCC2CCOCC2)c2ncc(-c3ccc(C(=O)NC4CC4)cc3)n2n1 [Example 2-81],4 nM,≤ 0.05 µM,
CC(C)(Oc1cc(NCC2CCOCC2)c2ncc(-c3ccc(C(=O)NC4CC4)cc3)n2n1)C(F)(F)F [Example 2-185],,,"IC50 ([1]; read-out: TTK IC50): 2.7 nM; IC50 [2, 5]: 0.05 to 0.5 µM"
C[C@@H]1CN(c2cc(NCC3CCOCC3)c3ncc(-c4ccc(C(=O)NC5CC5)cc4)n3n2)C[C@H](C)O1 [Example 2-41],10.1 nM,0.05 to 0.5 µM,
CC(C)(C)CNc1cc(NCC2CCOCC2)c2ncc(-c3ccc(C(=O)NC4CC4)cc3)n2n1 [Example 2-57],4.5 nM,0.05 to 0.5 µM,
O=C(NC1CC1)c1ccc(-c2cnc3c(NCC4CCOCC4)c(Cl)c(OC4CCCC4)nn23)cc1 [Example 2-216],,,"IC50 ([1]; read-out: TTK IC50): 2.7 nM; IC50 [2, 5]: 0.05 to 0.5 µM"
CCN(c1cc(NCC2CCOCC2)c2ncc(-c3ccc(C(=O)NC4CC4)cc3)n2n1)C1CCCC1 [Example 2-27],6 nM,0.05 to 0.5 µM,
O=C(NC1CC1)c1ccc(-c2cnc3c(NCC4CCOCC4)cc(OC45CC6CC(CC(C6)C4)C5)nn23)cc1 [Example 2-193],,,"IC50 ([1]; read-out: TTK IC50): 6 nM; IC50 [2, 5]: 0.05 to 0.5 µM"
N#Cc1ccc(-c2cn3c(-c4ccc(C(=O)NC5CC5)cc4)cnc3c(NC[C@H]3CC[C@H](C(=O)O)CC3)n2)cc1 [Example 1-239],4.8 nM,1 to 10 µM,

# The next lines start with results.
"IC50 [1, 3]","IC50 [2, 4]",SMILES,also measured
8.6 nM,0.05 to 0.5 µM,O=C(NC1CC1)c1ccc(-c2cnc3c(NCC4CCCCC4)cc(NC4CCCCC4)nn23)cc1 [Example 2-125],
4.5 nM,0.05 to 0.5 µM,COC(C)CNc1cc(NC2CCCCC2)nn2c(-c3ccc(C(=O)NC4CC4)cc3)cnc12 (centres unmarked) [Example 2-166],
4.1 nM,0.05 to 0.5 µM,O=C(NC1CC1)c1ccc(-c2cnc3c(NCc4ccncc4)cc(NC4CCCCC4)nn23)cc1 [Example 2-155],
2.9 nM,0.05 to 0.5 µM,O=C(NC1CC1)c1ccc(-c2cnc3c(NCc4cncs4)cc(NC4CCCCC4)nn23)cc1 [Example 2-147],
26.1 nM,0.05 to 0.5 µM,Cn1ccc(CNc2cc(NC3CCCCC3)nn3c(-c4ccc(C(=O)NC5CC5)cc4)cnc23)n1 [Example 2-159],
3.6 nM,0.05 to 0.5 µM,O=C(NC1CC1)c1ccc(-c2cnc3c(NCc4ccco4)cc(NC4CCCCC4)nn23)cc1 [Example 2-152],
5.4 nM,0.05 to 0.5 µM,Cn1cnc(CNc2cc(NC3CCCCC3)nn3c(-c4ccc(C(=O)NC5CC5)cc4)cnc23)c1 [Example 2-149],
6.7 nM,0.05 to 0.5 µM,O=C(NC1CC1)c1ccc(-c2cnc3c(NCC4CCCC4)cc(NC4CCCCC4)nn23)cc1 [Example 2-129],
3.8 nM,0.05 to 0.5 µM,Cn1cc(CNc2cc(NC3CCCCC3)nn3c(-c4ccc(C(=O)NC5CC5)cc4)cnc23)cn1 [Example 2-150],
2.9 nM,≤ 0.05 µM,O=C(NC1CC1)c1ccc(-c2cnc3c(NCC4CCOCC4)cc(Oc4cccc(F)c4O)nn23)cc1 [Example 2-117],
